Test system: colon cancer cell line HCT116
Experiment: Proliferation rate of HCT116 in culture with drug
Assay type: cell-based, human
Details: cultured for 2 days
Experimental: The human-derived cancer cells used were a colon cancer cell line HCT116, a melanoma cell line A375 (used only in the tunicamycin combination test group), a lung cancer cell line A549 (used only in the tunicamycin combination test group), and a prostate cancer cell line DU145 (used only in the tunicamycin combination test group). On a 6-well plate, the human-derived cancer cells were cultured for 1 day in the presence of tunicamycin for the tunicamycin combination test group, and cultured for 2 days in the presence of the relevant drug used in combination for the fluorouracil combination test group and the irinotecan combination test group. The concentration of the drug used in combination was set to a concentration that decreased the proliferation rate of the cancer cells by about half at the completion of culture. […] As a control, a test group without a drug used in combination was established. In the control group, only DMSO (dimethyl sulfoxide), a solvent for the drug used in combination, was added to the cancer cells at a final concentration of 0.1% (v/v), and then the cancer cells were cultured for 2 days.

## O=c1[nH]cc(F)c(=O)[nH]1 [fluorouracil]
  concentration that decreased the proliferation rate of the cancer cells by about half at the completion of culture: 0.4 µg/mL
